± gives the standard deviation of the averaged measurements.
Assays:
Experiment in all cases: CTG-3D luminescence at 96 h relative to day-0 seeding control (ratio to day 0); higher = more growth / less cytotoxicity; PDxO 3D drug screen, 96 h, CTG-3D normalised to day-0 seeding control.
HCI-024 = tested on: HCI-024 (organoid from a breast cancer xenograft)
HCI-005.E2 = tested on: HCI-005.E2 (organoid from a breast cancer xenograft with a HER2-positive history)
HCI-012 = tested on: HCI-012 (organoid from a breast cancer xenograft)
HCI-017.E2 = tested on: HCI-017.E2 (organoid from an ER-positive breast cancer xenograft)
HCI-001 = tested on: HCI-001 (organoid from a triple-negative breast cancer xenograft)
HCI-003.E2 = tested on: HCI-003.E2 (organoid from an ER-positive breast cancer xenograft)

C[C@@H]1COCCN1c1cc(C2([S@](C)(=N)=O)CC2)nc(-c2cc[nH]c3nccc2-3)n1 [ceralasertib]
CTG-3D luminescence at 96 h
Details | 12.5 pM | 0.00025 µM | 0.005 µM | 0.1 µM | 1 µM | 10 µM | 100 µM | 625 fM
HCI-001, days in culture: 240 | 1.54 | 0.962 | 0.905 | 0.752 | 1.11 | 0.512 | 0.536 | 1.21
HCI-001, days in culture: 260 | 1.68 | 0.899 | 1.81 | 1.66 | 1.19 | 0.492 | 0.35 | 1.32
HCI-001, days in culture: 269 | 1.61 | 1.65 | 1.82 | 1.79 | 1.06 | 0.544 | 0.577 | 1.54
HCI-001, days in culture: 327 | 1.41 | 1.4 | 1.77 | 1.47 | 1.36 | 0.335 | 0.479 | 1.44
HCI-001, days in culture: 346 | 1.56 | 1.49 | 1.38 | 1.3 | 1.02 | 0.456 | 0.658 | 1.26
HCI-001, days in culture: 364 | 1.44 | 1.19 | 1.23 | 1.16 | 0.732 | 0.301 | 0.319 | 1.52
HCI-012, days in culture: 143 | 2.09 | 2.04 | 2.05 | 2.14 | 1.8 | 0.748 | 0.319 | 2.02
HCI-012, days in culture: 162 | 2.52 | 2.31 | 2.18 | 3.14 | 1.92 | 1.3 | 0.451 | 3.18
HCI-012, days in culture: 201 | 2.62 | 2.22 | 1.56 | 1.68 | 2.3 | 0.577 | 0.973 | 1.75
HCI-017.E2, days in culture: 85 | 3.08 | 3.11 | 2.49 | 2.26 | 2.3 | 1.08 | 0.827 | 2.52
HCI-024, days in culture: 105 | 1.68 | 1.61 | 1.35 | 1.5 | 0.841 | 0.567 | 0.521 | 1.93
HCI-024, days in culture: 122 | 2.12 | 2.11 | 1.89 | 2 | 1.23 | 0.742 | 0.54 | 2.57
HCI-024, days in culture: 163 | 1.95 | 1.91 | 1.68 | 2.32 | 1.38 | 0.897 | 0.977 | 2.29

CTG-3D luminescence at 96 h
Details | 12.5 pM | 0.00025 µM | 0.005 µM | 0.1 µM | 1 µM | 10 µM | 100 µM | 625 fM
HCI-003.E2 | 2.11 ± 0.55 | 2.23 ± 0.58 | 2.12 ± 0.52 | 2.45 ± 0.55 | 1.51 ± 0.34 | 0.353 ± 0.13 | 0.0571 ± 0.035 | 2.11 ± 0.35
HCI-005.E2 | 1.83 ± 0.65 | 1.7 ± 0.29 | 1.86 ± 0.41 | 1.9 ± 0.35 | 1.16 ± 0.36 | 0.849 ± 0.25 | 0.6 ± 0.14 | 1.78 ± 0.4
HCI-017.E2 | 1.72 ± 0.058 | 2.28 ± 0.099 | 2.17 ± 0.45 | 2.23 ± 0.21 | 2.02 ± 0.17 | 1.09 ± 0.1 | 0.8168 ± 0.007 | 2.165 ± 0.019

Cc1cc(Nc2ncnc3ccc(NC4=NC(C)(C)CO4)cc23)ccc1Oc1ccn2ncnc2c1 [tucatinib]
CTG-3D luminescence at 96 h
Details | 12.5 pM | 0.00025 µM | 0.005 µM | 0.1 µM | 1 µM | 10 µM | 100 µM | 625 fM
HCI-001, days in culture: 240 | 1.47 | 0.88 | 0.65 | 1.24 | 1.37 | 1.02 | 0.0264 | 1.43
HCI-001, days in culture: 260 | 2.62 | 0.988 | 1.22 | 1.38 | 0.756 | 1.46 | 0.206 | 1.5
HCI-001, days in culture: 269 | 1.48 | 1.49 | 1.39 | 1.64 | 1.38 | 1.67 | 0.0618 | 1.69
HCI-001, days in culture: 327 | 1.8 | 1.6 | 1.87 | 1.75 | 1.44 | 1.16 | 0.0356 | 1.78
HCI-001, days in culture: 346 | 1.47 | 1.22 | 1.17 | 1 | 1.24 | 1.25 | 0.0455 | 1.21
HCI-001, days in culture: 364 | 1.49 | 1.19 | 1.34 | 0.88 | 0.895 | 1.28 | 0.0245 | 1.63
HCI-012, days in culture: 143 | 2.24 | 2.35 | 2.17 | 2.39 | 2.43 | 1.99 | 0.0289 | 2.05
HCI-012, days in culture: 162 | 2.64 | 2.24 | 1.87 | 3.58 | 2.71 | 2.41 | 0.0168 | 2.94
HCI-012, days in culture: 201 | 2.71 | 2.13 | 1.62 | 1.73 | 2.34 | 1.37 | 0.053 | 1.83
HCI-017.E2, days in culture: 85 | 2.39 | 3.33 | 2.72 | 2.78 | 3.27 | 1.71 | 0.109 | 2.31
HCI-024, days in culture: 105 | 1.67 | 1.75 | 1.37 | 1.61 | 1.49 | 1.54 | 0.0289 | 2.2
HCI-024, days in culture: 122 | 1.99 | 2.82 | 2.36 | 1.93 | 1.73 | 1.83 | 0.0421 | 2.27
HCI-024, days in culture: 163 | 1.68 | 1.9 | 1.49 | 2.11 | 1.77 | 1.88 | 0.0384 | 2.18

CTG-3D luminescence at 96 h
Details | 12.5 pM | 0.00025 µM | 0.005 µM | 0.1 µM | 1 µM | 10 µM | 100 µM | 625 fM
HCI-003.E2 | 2.15 ± 0.73 | 2.41 ± 0.78 | 2.02 ± 0.54 | 2.29 ± 0.47 | 1.93 ± 0.47 | 1.31 ± 0.14 | 0.018 ± 0.017 | 2.12 ± 0.46
HCI-005.E2 | 1.56 ± 0.42 | 1.61 ± 0.47 | 2.08 ± 0.23 | 2 ± 0.3 | 1.47 ± 0.29 | 1.53 ± 0.18 | 0.00612 ± 0.0018 | 2.09 ± 0.49
HCI-017.E2 | 1.74 ± 0.082 | 1.98 ± 0.36 | 2.09 ± 0.45 | 1.95 ± 0.13 | 1.79 ± 0.19 | 1.413 ± 0.0031 | 0.0205 ± 0.00032 | 1.96 ± 0.23

NC1(C(=O)N[C@@H](CCO)c2ccc(Cl)cc2)CCN(c2nc[nH]c3nccc2-3)CC1 [capivasertib]
CTG-3D luminescence at 96 h
Details | 12.5 pM | 0.00025 µM | 0.005 µM | 0.1 µM | 1 µM | 10 µM | 100 µM | 625 fM
HCI-001, days in culture: 240 | 1.55 | 0.986 | 1.1 | 0.601 | 0.604 | 0.407 | 0.382 | 1.02
HCI-001, days in culture: 260 | 2.26 | 1.47 | 1.9 | 1.32 | 0.652 | 0.532 | 0.449 | 1.71
HCI-001, days in culture: 269 | 1.69 | 1.5 | 1.82 | 1.34 | 0.734 | 0.758 | 0.593 | 1.71
HCI-001, days in culture: 327 | 1.71 | 1.3 | 1.7 | 1.35 | 0.84 | 0.552 | 0.71 | 1.81
HCI-001, days in culture: 346 | 1.49 | 1.36 | 1.35 | 1 | 0.937 | 0.678 | 0.809 | 1.33
HCI-001, days in culture: 364 | 1.6 | 1.21 | 1.21 | 0.928 | 0.847 | 0.605 | 0.375 | 1.47
HCI-012, days in culture: 143 | 2.02 | 1.95 | 1.78 | 2.01 | 1.55 | 0.931 | 0.0899 | 1.91
HCI-012, days in culture: 162 | 2.5 | 2.27 | 1.88 | 2.92 | 1.51 | 1.15 | 0.236 | 3.5
HCI-012, days in culture: 201 | 2.73 | 2.11 | 1.59 | 1.5 | 1.61 | 0.543 | 0.269 | 1.74
HCI-017.E2, days in culture: 85 | 2.33 | 2.6 | 2.77 | 2.3 | 1.44 | 0.794 | 0.118 | 2.69
HCI-024, days in culture: 105 | 1.73 | 1.84 | 1.39 | 1.47 | 0.926 | 0.839 | 0.401 | 2.06
HCI-024, days in culture: 122 | 2.22 | 2.39 | 1.78 | 1.68 | 1.09 | 1.35 | 0.518 | 2.23
HCI-024, days in culture: 163 | 2.16 | 1.74 | 1.93 | 2.41 | 1.56 | 1.32 | 0.629 | 2.73

CTG-3D luminescence at 96 h
Details | 12.5 pM | 0.00025 µM | 0.005 µM | 0.1 µM | 1 µM | 10 µM | 100 µM | 625 fM
HCI-003.E2 | 2.4 ± 0.86 | 2.22 ± 0.62 | 2.03 ± 0.41 | 1.76 ± 0.28 | 0.832 ± 0.14 | 0.479 ± 0.06 | 0.0376 ± 0.0065 | 2.12 ± 0.16
HCI-005.E2 | 1.64 ± 0.6 | 1.67 ± 0.41 | 1.86 ± 0.38 | 2.16 ± 0.37 | 1.02 ± 0.3 | 0.59 ± 0.089 | 0.467 ± 0.16 | 1.73 ± 0.28
HCI-017.E2 | 1.91 ± 0.24 | 2.1835 ± 0.00074 | 2.12 ± 0.47 | 1.61 ± 0.075 | 1.02 ± 0.1 | 0.644 ± 0.04 | 0.2237 ± 0.00086 | 2.12 ± 0.11

Reference: the supplement of paper PMC8882468
